Residues, ends and D or L forms follow the SMILES beside them.
Columns and labels:
[1] = test system: E. coli 25922; assay: Minimal inhibitory concentration (liquid culture); settings: inoculum 1100 CFU/ml; a-b = highest concentration with growth - lowest without growth
[2] = test system: Y. enterocolitica; assay: Minimal inhibitory concentration (liquid culture); settings: inoculum 5000 CFU/ml; a-b = highest concentration with growth - lowest without growth
[3] = test system: E. coli 11775; assay: Minimal inhibitory concentration (liquid culture); settings: a-b = highest concentration with growth - lowest without growth
[4] = test system: Escherichia coli (K514); type: cell-based; settings: agar plate, cecropin P1 5 nanomoles/well (column head: 500p), 3 mm wells
[5] = test system: bacterial strains used in this study; assay: Minimal inhibitory concentration, inoculum effect; type: cell-based; settings: any of the bacterial strains used
[6] = test system: Rhizobium meliloti; assay: Inhibition zone assay (agar plate); type: cell-based; settings: cecropin P1 5 nanomoles/well (column head: 500p), 3 mm wells
[7] = test system: Shigella dysenteriae; type: cell-based; settings: agar plate, cecropin P1 5 nanomoles/well (column head: 500p), 3 mm wells
[8] = test system: N. meningiditis; type: cell-based; settings: cecropin P1, 5 nanomoles/well
[9] = test system: Yersinia enterocolitica; assay: Inhibition zone assay (agar plate); type: cell-based; settings: cecropin P1 5 nanomoles/well (column head: 500p), 3 mm wells
[10] = test system: Helicobacter pylori; type: cell-based; settings: cecropin P1, 5 nanomoles/well
[11] = test system: M. morganii; assay: Minimal inhibitory concentration (liquid culture); settings: inoculum 400 CFU/ml; a-b = highest concentration with growth - lowest without growth
[12] = test system: Agrobacterium tumefaciens; assay: Inhibition zone assay (agar plate); type: cell-based; settings: agar plate, cecropin P1 5 nanomoles/well (column head: 500p), 3 mm wells
[13] = test system: Gardnerella vaginalis; type: cell-based; settings: cecropin P1, 5 nanomoles/well
[14] = test system: Acinetobacter calcoaceticus; assay: Inhibition zone assay (agar plate); type: cell-based; settings: agar plate, cecropin P1 5 nanomoles/well (column head: 500p), 3 mm wells
[15] = test system: Klebsiella pneumoniae; assay: Inhibition zone assay (agar plate); type: cell-based; settings: agar plate, cecropin P1 5 nanomoles/well (column head: 500p), 3 mm wells
[16] = test system: E. coli strain 11775Apid^R; settings: 11775Apid^R vs ATCC 11775; cited from earlier work
[17] = test system: Salmonella typhimurium; assay: Inhibition zone assay (agar plate); type: cell-based; settings: agar plate, cecropin P1 5 nanomoles/well (column head: 500p), 3 mm wells
[18] = test system: Legionella pneumophila; type: cell-based
[19] = test system: E. coli 23802; assay: Minimal inhibitory concentration (liquid culture); settings: inoculum 5000 CFU/ml; a-b = highest concentration with growth - lowest without growth
[20] = test system: Salmonella typhi; type: cell-based; settings: agar plate, cecropin P1 5 nanomoles/well (column head: 500p), 3 mm wells
[21] = test system: Xanthomonas maltophilia; type: cell-based; settings: cecropin P1, 5 nanomoles/well
[22] = test system: A. calcoaceticus; assay: Minimal inhibitory concentration (liquid culture); settings: inoculum 16 × 10^6 CFU/ml; a-b = highest concentration with growth - lowest without growth
[23] = test system: S. typhimurium; assay: Minimal inhibitory concentration (liquid culture); settings: inoculum 8 × 10^6 CFU/ml; a-b = highest concentration with growth - lowest without growth
[24] = test system: Haemophilus ducreyi; type: cell-based; settings: cecropin P1, 5 nanomoles/well
[25] = test system: E. coli Apid^R; assay: Minimal inhibitory concentration (liquid culture); type: cell-based; settings: a-b = highest concentration with growth - lowest without growth
Excerpt: For details see `Experimental Procedures`.

[26] = test system: Bacteriodes melaninogenicus; type: cell-based; settings: cecropin P1, 5 nanomoles/well
[27] = test system: Haemophilus influenzae; assay: Inhibition zone assay (agar plate); type: cell-based; settings: cecropin P1 5 nanomoles/well (column head: 500p), 3 mm wells
[28] = test system: Campylobacter jejuni; assay: Inhibition zone assay (agar plate); type: cell-based; settings: cecropin P1 5 nanomoles/well (column head: 500p), 3 mm wells
[29] = test system: Enterobacter cloacae; assay: Inhibition zone assay (agar plate); type: cell-based; settings: agar plate, cecropin P1 5 nanomoles/well (column head: 500p), 3 mm wells
[30] = test system: Neisseria gonorrhoeae; type: cell-based; settings: cecropin P1, 5 nanomoles/well
[31] = test system: Proteus mirabilis; type: cell-based; settings: cecropin P1, 5 nanomoles/well

Q: Which “minimal inhibitory concentration (MIC)” value [1] does the source give for `CC[C@H](C)[C@H](NC(=O)CNC(=O)[C@H](CCC(=O)O)NC(=O)[C@H](CO)NC(=O)[C@@H](NC(=O)[C@H](CCCNC(=N)N)NC(=O)[C@H](CCCCN)NC(=O)[C@H](CCCCN)NC(=O)[C@H](C)NC(=O)[C@H](CO)NC(=O)[C@H](CC(N)=O)NC(=O)[C@H](CCC(=O)O)NC(=O)[C@H](CC(C)C)NC(=O)[C@H](CCCCN)NC(=O)[C@H](CCCCN)NC(=O)[C@H](C)NC(=O)[C@@H](NC(=O)[C@H](CCCCN)NC(=O)[C@H](CO)NC(=O)[C@H](CC(C)C)NC(=O)[C@H](Cc1c[nH]c2ccccc12)NC(=O)[C@@H](N)CO)[C@@H](C)O)[C@@H](C)CC)C(=O)N[C@@H](C)C(=O)N[C@H](C(=O)N[C@@H](C)C(=O)N[C@H](C(=O)N[C@@H](CCC(N)=O)C(=O)NCC(=O)NCC(=O)N1CCC[C@H]1C(=O)N[C@@H](CCCNC(=N)N)C(=O)O)[C@@H](C)CC)[C@@H](C)CC` [CP-1, cecropin P1, reference compound] (H-SWLSKTAKKLENSAKKRISEGIAIAIQGGPR-OH) here?
A: 0.2 to 1 µg/mL

Q: And the “minimal inhibitory concentration (MIC)” value [2]?
A: 0.2 to 1 µg/mL

Q: What about the “minimal inhibitory concentration (MIC)” value ([3]; inoculum 16 × 10^6 CFU/ml) of the same molecule?
A: 0.2 to 1 µg/mL

Q: What about the “minimal inhibitory concentration (MIC)” value ([3]; inoculum 1200 CFU/ml) of the same molecule?
A: 0.2 to 1 µg/mL

Q: And the “inhibition zone diameter (number of plus signs)” value (from here on “inhibition zone diameter”) [4]?
A: + ((+) 5-6 mm)

Q: What about the inoculum effect [5] of the same molecule?
A: No inoculum effect

Q: And the “inhibition zone diameter” value [6]?
A: + ((+) 5-6 mm)

Q: And the “inhibition zone diameter” value [7]?
A: ++++ ((++++) 15-19 mm)

Q: And the “measurable activity on agar plate” value [8]?
A: not

Q: And the “inhibition zone diameter” value [9]?
A: +++++ ((+++++) 20 or more min)

Q: And the “measurable activity on agar plate” value [10]?
A: not

Q: And the “minimal inhibitory concentration (MIC)” value [11]?
A: 0.2 to 1 µg/mL

Q: And the “inhibition zone diameter” value [12]?
A: ++++ ((++++) 15-19 mm)

Q: What about the “measurable activity on agar plate” value [13] of the same molecule?
A: not

Q: What about the “inhibition zone diameter” value [14] of the same molecule?
A: ++ ((++) 7-9 mm)

Q: And the “inhibition zone diameter” value [15]?
A: + ((+) 5-6 mm)

Q: What about the “susceptibility of mutant compared to parental strain” value [16] of the same molecule?
A: equally susceptible

Q: What about the “inhibition zone diameter” value [17] of the same molecule?
A: ++ ((++) 7-9 mm)

Q: What about the “inhibition zone diameter” value [18] of the same molecule?
A: +++++ (key: (+) 5-6 mm; (++) 7-9 mm; (+++) 10-14 mm; (++++) 15-19 mm; (+++++) 20 or more min; (-) denotes that no inhibition was observed)

Q: What about the “minimal inhibitory concentration (MIC)” value [19] of the same molecule?
A: 0.2 to 1 µg/mL

Q: What about the “inhibition zone diameter” value [20] of the same molecule?
A: +++++ ((+++++) 20 or more min)

Q: What about the “measurable activity on agar plate” value [21] of the same molecule?
A: measurable activity

Q: And the “minimal inhibitory concentration (MIC)” value [22]?
A: 2 to 10 µg/mL

Q: What about the “minimal inhibitory concentration (MIC)” value [23] of the same molecule?
A: 1 to 2 µg/mL

Q: And the “measurable activity on agar plate” value [24]?
A: measurable activity

Q: What about the “minimal inhibitory concentration (MIC)” value ([25]; inoculum 12 × 10^6 CFU/ml) of the same molecule?
A: 0.2 to 1 µg/mL

Q: What about the “minimal inhibitory concentration (MIC)” value ([25]; inoculum 1000 CFU/ml) of the same molecule?
A: 0.2 to 1 µg/mL

Q: And the “measurable activity on agar plate” value [26]?
A: measurable activity

Q: What about the “inhibition zone diameter” value [27] of the same molecule?
A: ++++ ((++++) 15-19 mm)

Q: And the “inhibition zone diameter” value [28]?
A: +++ ((+++) 10-14 mm)

Q: What about the “inhibition zone diameter” value [29] of the same molecule?
A: ++++ ((++++) 15-19 mm)

Q: What about the “measurable activity on agar plate” value [30] of the same molecule?
A: not

Q: What about the “measurable activity on agar plate” value [31] of the same molecule?
A: not
